From US9247759B2, “Identification of human T2R receptors that respond to bitter compounds that elicit the bitter taste in compositions, and the use thereof in assays to identify compounds that inhibit (block) bitter taste in compositions and use thereof” (SENOMYX, INC., priority 2007, dated 2016)

How the values were obtained:
[1] = molecular target: hT2R64 (Homo sapiens (Human), UniProt P59538); assay: hT2R panel inhibition, transient HEK293 G16g44, agonist Aristolochic Acid 1 μM; assay type: cell-based; details: HEK293, compound at 25 μM; receptor activated to EC80 with the corresponding agonist; read-out: screening result against bitter receptor 64
Procedure, shortened: (§1)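 Panel: 22 human T2Rs, individually transient in stable G16g44 cells. Stim: EC80 agonist. Output: % reduction of activity by test cpd.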

[2] = test system: hT2R67; assay: hT2R panel inhibition, transient HEK293 G16g44, agonist Andrographolide 5 μM; assay type: cell-based, human; details: compound at 25 μM; receptor activated to EC80 with the corresponding agonist
Procedure, shortened: as §1

[3] = molecular target: T1, hT2R14 (Homo sapiens (Human), UniProt Q9NYV8); assay: hT2R14 antagonist high-throughput FLIPR assay, stable cell line with G16g44, agonist aristolochic acid; assay type: cell-based; details: read-out: IC50 on hT2R14 bitter receptor
Procedure, shortened: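 Compounds were co-applied with 3 μM aristolochic acid, a dose set to reach 70-80% of maximal hT2R14 activation. Read-out was FLIPR fluorescence in a stable HEK293 line co-expressing hT2R14 and G16g44.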

[4] = test system: hT2R55; assay: hT2R panel inhibition, transient HEK293 G16g44, agonist Cinchonine 150 μM; assay type: cell-based, human; details: compound at 25 μM; receptor activated to EC80 with the corresponding agonist
Procedure, shortened: as §1

[5] = test system: hT2R63; assay: hT2R panel inhibition, transient HEK293 G16g44, agonist Caffeine 1 mM or Andrographolide 100 μM; assay type: cell-based, human; details: compound at 25 μM; receptor activated to EC80 with the corresponding agonist
Procedure, shortened: as §1

[6] = molecular target: hT2R5 (Homo sapiens (Human), UniProt Q9NYW4); assay: hT2R panel inhibition, transient HEK293 G16g44, agonist Picoline 10 mM; assay type: cell-based; details: HEK293, compound at 25 μM; receptor activated to EC80 with the corresponding agonist; read-out: screening result against bitter receptor 5
Procedure, shortened: as §1

[7] = molecular target: hT2R3 (Homo sapiens (Human), UniProt Q9NYW6); assay: hT2R panel inhibition, transient HEK293 G16g44, agonist Chloroquine pH6.5 50 μM; assay type: cell-based; details: HEK293, compound at 25 μM; receptor activated to EC80 with the corresponding agonist; read-out: screening result against bitter receptor 3
Procedure, shortened: as §1

[8] = test system: hT2R65; assay: hT2R panel inhibition, transient HEK293 G16g44, agonist Oleuropein 1 mM; assay type: cell-based, human; details: compound at 25 μM; receptor activated to EC80 with the corresponding agonist
Procedure, shortened: as §1

[9] = molecular target: hT2R10 (Homo sapiens (Human), UniProt Q9NYW0); assay: hT2R panel inhibition, transient HEK293 G16g44, agonist Strychnine 50 μM; assay type: cell-based; details: HEK293, read-out: screening result against bitter receptor 10, compound at 25 μM; receptor activated to EC80 with the corresponding agonist
[10] = molecular target: T1, hT2R14; assay: hT2R panel inhibition, transient HEK293 G16g44, agonist Aristolochic Acid 2 μM; assay type: cell-based; details: HEK293, compound at 25 μM; receptor activated to EC80 with the corresponding agonist; read-out: screening result against bitter receptor 14
Procedure, shortened: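 Agonist challenge was at EC80, with 0.5 mM andrographolide on hT2R8 and 2 μM aristolochic acid on hT2R14. Inhibition was measured in functional assays in HEK293 cells that stably carry the promiscuous G protein G16g44 and were transiently transfected with the individual receptor.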

[11] = molecular target: hT2R51 (Homo sapiens (Human), UniProt P59533); assay: hT2R panel inhibition, transient HEK293 G16g44, agonist Prop 2.5 μM; assay type: cell-based; details: HEK293, compound at 25 μM; receptor activated to EC80 with the corresponding agonist; read-out: screening result against bitter receptor 51
Procedure, shortened: as §1

[12] = molecular target: hT2R16 (Homo sapiens (Human), UniProt Q9NYV7); assay: hT2R panel inhibition, transient HEK293 G16g44, agonist Salicin 1 mM; assay type: cell-based; details: HEK293, compound at 25 μM; receptor activated to EC80 with the corresponding agonist; read-out: screening result against bitter receptor 16
Procedure, shortened: as §1

[13] = molecular target: hT2R71 (Homo sapiens (Human), UniProt P59536); assay: hT2R panel inhibition, transient HEK293 G16g44, agonist Picric Acid 10 μM; assay type: cell-based; details: HEK293, compound at 25 μM; receptor activated to EC80 with the corresponding agonist; read-out: screening result against bitter receptor 71
Procedure, shortened: as §1

[14] = molecular target: hT2R7 (Homo sapiens (Human), UniProt Q9NYW3); assay: hT2R panel inhibition, transient HEK293 G16g44, agonist Chloroquine pH6.5 10 mM; assay type: cell-based; details: HEK293, compound at 25 μM; receptor activated to EC80 with the corresponding agonist; read-out: screening result against bitter receptor 7
Procedure, shortened: as §1

[15] = molecular target: hT2R61 (Homo sapiens (Human), UniProt P59537); assay: hT2R panel inhibition, transient HEK293 G16g44, agonist Aristolochic Acid 25 nM; assay type: cell-based; details: HEK293, compound at 25 μM; receptor activated to EC80 with the corresponding agonist; read-out: screening result against bitter receptor 61
Procedure, shortened: as §1

[16] = molecular target: hT2R13 (Homo sapiens (Human), UniProt Q9NYV9); assay: hT2R panel inhibition, transient HEK293 G16g44, agonist Oxyphenonium 1 mM; assay type: cell-based; details: HEK293, compound at 25 μM; receptor activated to EC80 with the corresponding agonist; read-out: screening result against bitter receptor 13
Protocol: Specifically, in order to evaluate the inhibitory selectivity of the Compound C compound, this compound was tested against 22 human T2Rs which were deorphaned by Senomyx. These receptors and the bitter ligands that activate these human T2Rs are reported in earlier patent applications which are incorporated by reference herein. These 22 human T2Rs are hT2R1, 3, 4, 5, 7, 8, 9, 10, 13, 14, 16, 44, 51, 54, 55, 61, 63, 64, 65, 67, 71 and 75. The amino acid and nucleic acid sequences of all of these T2Rs may be found in these earlier patent applications. These human T2Rs were each individually transiently transfected into HEK293 cells that stably express the promiscuous G protein G16g44 and functional assays were effected using these receptors as disclosed in these same patent applications. […] The ligands were used at EC80 concentration levels. The list of bitter ligands utilized and the tested ligand concentrations are contained in Table 5 of this example.
Relating to the foregoing, FIG. 5 contains experimental results wherein Compound C was tested with different agonist compounds. The inhibition activity is represented by the reduction of receptor activity in the presence of Compound C. […] These 13 hT2Rs are hT2R3, 7, 10, 14, 16, 44, 51, 55, 61, 63, 64, 65, and 71.

[17] = test system: hT2R44; assay: hT2R panel inhibition, transient HEK293 G16g44, agonist Denatonium 0.5 μM; assay type: cell-based, human; details: compound at 25 μM; receptor activated to EC80 with the corresponding agonist
Procedure, shortened: as §1

[18] = molecular target: hT2R75 (Homo sapiens (Human), UniProt P59540); assay: hT2R panel inhibition, transient HEK293 G16g44, agonist Strychnine 1 μM; assay type: cell-based; details: HEK293, read-out: screening result against bitter receptor 75, compound at 25 μM; receptor activated to EC80 with the corresponding agonist
[19] = test system: hT2R54; assay: hT2R panel inhibition, transient HEK293 G16g44, agonist Ranitidine 5 mM; assay type: cell-based, human; details: compound at 25 μM; receptor activated to EC80 with the corresponding agonist
Procedure, shortened: as §1

hT2R16, sequence (Q9NYV7 whole entry): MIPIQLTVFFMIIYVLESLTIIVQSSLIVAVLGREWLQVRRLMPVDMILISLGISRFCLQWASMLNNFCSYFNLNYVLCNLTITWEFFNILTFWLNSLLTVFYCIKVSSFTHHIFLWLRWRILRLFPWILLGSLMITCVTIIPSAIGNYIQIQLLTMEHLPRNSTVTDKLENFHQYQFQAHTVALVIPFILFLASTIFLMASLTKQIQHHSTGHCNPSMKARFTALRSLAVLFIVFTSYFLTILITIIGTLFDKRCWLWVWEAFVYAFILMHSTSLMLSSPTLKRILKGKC
hT2R64, sequence (P59538 whole entry): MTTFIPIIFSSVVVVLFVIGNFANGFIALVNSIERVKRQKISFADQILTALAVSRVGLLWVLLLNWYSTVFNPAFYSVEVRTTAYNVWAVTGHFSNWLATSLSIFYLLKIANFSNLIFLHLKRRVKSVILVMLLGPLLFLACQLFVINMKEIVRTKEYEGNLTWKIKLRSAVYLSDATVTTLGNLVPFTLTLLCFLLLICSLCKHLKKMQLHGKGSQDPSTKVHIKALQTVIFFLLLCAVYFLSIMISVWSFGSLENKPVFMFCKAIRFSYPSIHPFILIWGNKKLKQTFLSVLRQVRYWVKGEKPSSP
hT2R10, sequence (Q9NYW0 whole entry): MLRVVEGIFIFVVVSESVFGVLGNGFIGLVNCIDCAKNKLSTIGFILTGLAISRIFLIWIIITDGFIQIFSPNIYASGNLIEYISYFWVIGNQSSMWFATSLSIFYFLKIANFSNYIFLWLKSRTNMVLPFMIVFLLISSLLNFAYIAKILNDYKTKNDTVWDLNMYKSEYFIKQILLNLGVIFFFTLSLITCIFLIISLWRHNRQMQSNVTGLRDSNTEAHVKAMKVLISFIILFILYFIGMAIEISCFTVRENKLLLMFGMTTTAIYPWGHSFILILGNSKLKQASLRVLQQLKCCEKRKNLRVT
hT2R61, sequence (P59537 whole entry): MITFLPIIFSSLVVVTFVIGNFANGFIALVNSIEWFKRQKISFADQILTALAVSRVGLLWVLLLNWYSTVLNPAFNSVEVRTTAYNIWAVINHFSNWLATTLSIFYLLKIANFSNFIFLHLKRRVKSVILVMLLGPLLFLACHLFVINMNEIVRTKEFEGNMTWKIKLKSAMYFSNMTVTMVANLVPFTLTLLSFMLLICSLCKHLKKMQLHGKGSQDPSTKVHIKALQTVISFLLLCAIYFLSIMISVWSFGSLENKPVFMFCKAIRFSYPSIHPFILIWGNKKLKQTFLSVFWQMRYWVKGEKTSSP
hT2R13, sequence (Q9NYV9 whole entry): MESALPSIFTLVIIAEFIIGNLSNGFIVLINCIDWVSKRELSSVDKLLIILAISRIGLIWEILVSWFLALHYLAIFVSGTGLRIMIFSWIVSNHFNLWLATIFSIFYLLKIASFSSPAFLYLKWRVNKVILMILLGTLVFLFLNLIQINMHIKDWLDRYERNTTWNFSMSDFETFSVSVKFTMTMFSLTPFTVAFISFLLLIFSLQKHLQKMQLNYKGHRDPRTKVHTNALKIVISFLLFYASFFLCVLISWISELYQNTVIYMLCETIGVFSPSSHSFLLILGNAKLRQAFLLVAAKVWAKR
hT2R51, sequence (P59533 whole entry): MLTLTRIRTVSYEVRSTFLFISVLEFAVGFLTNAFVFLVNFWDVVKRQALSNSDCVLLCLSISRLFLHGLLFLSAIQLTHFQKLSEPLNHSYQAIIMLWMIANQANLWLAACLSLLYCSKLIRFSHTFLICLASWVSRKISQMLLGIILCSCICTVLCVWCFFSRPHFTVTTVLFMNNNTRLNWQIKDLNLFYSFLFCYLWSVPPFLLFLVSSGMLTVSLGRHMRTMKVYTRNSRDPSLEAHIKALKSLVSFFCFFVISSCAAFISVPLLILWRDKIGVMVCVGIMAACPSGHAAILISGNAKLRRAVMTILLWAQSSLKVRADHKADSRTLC
hT2R71, sequence (P59536 whole entry): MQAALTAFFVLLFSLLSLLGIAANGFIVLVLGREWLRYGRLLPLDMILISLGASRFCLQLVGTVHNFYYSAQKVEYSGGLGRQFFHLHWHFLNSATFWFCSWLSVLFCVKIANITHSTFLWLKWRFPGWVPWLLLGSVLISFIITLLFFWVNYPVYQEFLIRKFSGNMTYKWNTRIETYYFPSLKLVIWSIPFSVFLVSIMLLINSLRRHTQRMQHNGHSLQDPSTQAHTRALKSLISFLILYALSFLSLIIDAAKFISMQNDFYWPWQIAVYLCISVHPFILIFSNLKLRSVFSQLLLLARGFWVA
hT2R5, sequence (Q9NYW4 whole entry): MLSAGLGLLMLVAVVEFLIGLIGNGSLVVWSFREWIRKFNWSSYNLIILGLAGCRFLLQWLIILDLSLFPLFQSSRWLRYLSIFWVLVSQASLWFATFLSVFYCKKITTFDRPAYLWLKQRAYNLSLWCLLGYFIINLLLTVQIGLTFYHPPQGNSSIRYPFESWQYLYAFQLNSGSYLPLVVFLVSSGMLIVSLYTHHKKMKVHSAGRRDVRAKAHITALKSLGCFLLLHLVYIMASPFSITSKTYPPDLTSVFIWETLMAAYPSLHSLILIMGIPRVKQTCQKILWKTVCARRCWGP
hT2R7, sequence (Q9NYW3 whole entry): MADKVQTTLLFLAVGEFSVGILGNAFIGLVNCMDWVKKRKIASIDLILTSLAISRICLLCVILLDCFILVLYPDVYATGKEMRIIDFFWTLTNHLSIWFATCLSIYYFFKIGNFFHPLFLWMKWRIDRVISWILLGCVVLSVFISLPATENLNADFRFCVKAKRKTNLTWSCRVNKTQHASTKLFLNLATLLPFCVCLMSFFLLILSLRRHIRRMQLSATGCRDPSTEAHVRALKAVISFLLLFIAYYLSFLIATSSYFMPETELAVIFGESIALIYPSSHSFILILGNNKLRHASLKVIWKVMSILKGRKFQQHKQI
T1 sequence (Q9NYV8 whole entry): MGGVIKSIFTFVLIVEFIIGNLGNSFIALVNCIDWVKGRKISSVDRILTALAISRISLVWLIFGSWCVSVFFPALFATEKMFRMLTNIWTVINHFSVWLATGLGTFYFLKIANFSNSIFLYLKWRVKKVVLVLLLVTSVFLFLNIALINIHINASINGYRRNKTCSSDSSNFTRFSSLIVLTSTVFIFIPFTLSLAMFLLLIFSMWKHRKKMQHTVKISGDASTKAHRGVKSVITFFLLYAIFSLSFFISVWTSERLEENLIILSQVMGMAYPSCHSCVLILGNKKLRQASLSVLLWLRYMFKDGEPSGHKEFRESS
hT2R3, sequence (Q9NYW6 whole entry): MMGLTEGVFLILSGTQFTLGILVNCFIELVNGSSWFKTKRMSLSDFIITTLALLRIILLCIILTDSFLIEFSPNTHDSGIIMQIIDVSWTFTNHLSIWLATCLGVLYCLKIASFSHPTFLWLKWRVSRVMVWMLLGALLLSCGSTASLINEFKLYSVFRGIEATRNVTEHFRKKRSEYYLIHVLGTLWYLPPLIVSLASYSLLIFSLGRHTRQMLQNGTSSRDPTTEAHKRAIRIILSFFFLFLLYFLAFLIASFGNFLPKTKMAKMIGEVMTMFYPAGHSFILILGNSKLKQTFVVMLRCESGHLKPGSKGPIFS
hT2R75, sequence (P59540 whole entry): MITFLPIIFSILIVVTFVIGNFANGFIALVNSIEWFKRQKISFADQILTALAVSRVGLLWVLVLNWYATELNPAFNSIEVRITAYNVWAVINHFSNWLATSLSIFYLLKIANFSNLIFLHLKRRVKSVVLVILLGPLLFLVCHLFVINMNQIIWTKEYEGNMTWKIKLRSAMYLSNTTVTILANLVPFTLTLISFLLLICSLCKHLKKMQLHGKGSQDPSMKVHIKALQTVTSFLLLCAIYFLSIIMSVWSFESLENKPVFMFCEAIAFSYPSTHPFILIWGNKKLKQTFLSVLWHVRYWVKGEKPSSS

Row | Structure (SMILES) | inhibition at 25 µM [1] [%] | screening result against bitter receptor 67 [2] | IC50 [3] [nM] | screening result against bitter receptor 55 [4] | screening result against bitter receptor 63 [5] | inhibition at 25 µM [6] [%] | inhibition at 25 µM [7] [%] | screening result against bitter receptor 65 [8] | inhibition at 25 µM [9] [%] | inhibition at 25 µM [10] [%] | inhibition at 25 µM [11] [%] | inhibition at 25 µM [12] [%] | inhibition at 25 µM [13] [%] | inhibition at 25 µM [14] [%] | inhibition at 25 µM [15] [%] | inhibition at 25 µM [16] [%] | screening result against bitter receptor 44 [17] | inhibition at 25 µM [18] [%] | screening result against bitter receptor 54 [19]
1 | COc1ccc(CN(Cc2ccc(F)c(OC)c2)S(=O)(=O)c2ccc(C(=O)O)cc2)cc1 [Example 5-50, 4-(N-(4-fluoro-3-methoxybenzyl)-N-(4-methoxybenzyl)sulfamoyl)-benzoic acid] | 60 to 80 | ++ (40% to 60% inhibition = ++) | 1650 | ++++ (80% or greater inhibition = ++++) | ++++ (80% or greater inhibition = ++++) | 20 to 40 | 40 to 60 | ++ (40% to 60% inhibition = ++) | 20 to 40 | > 80 | 20 to 40 | 40 to 60 | 60 to 80 | 20 to 40 | > 80 | 20 to 40 | +++ (60% to 80% inhibition = +++) | – | –
2 | COc1ccc(CN(Cc2ccoc2)S(=O)(=O)c2ccc(C(=O)O)cc2)cc1 [Example 5-27, 4-(N-(furan-3-ylmethyl)-N-(4-methoxybenzyl)sulfamoyl)benzoic acid] | 60 to 80 | ++ (40% to 60% inhibition = ++) | – | ++++ (80% or greater inhibition = ++++) | +++ (60% to 80% inhibition = +++) | 40 to 60 | 40 to 60 | ++ (40% to 60% inhibition = ++) | 60 to 80 | > 80 | 40 to 60 | 20 to 40 | 60 to 80 | 20 to 40 | > 80 | 20 to 40 | +++ (60% to 80% inhibition = +++) | 20 to 40 | ++ (40% to 60% inhibition = ++)
3 | O=C(O)c1ccc(S(=O)(=O)N(Cc2ccccc2)Cc2ccc3c(c2)OCO3)cc1 [Example 5-93, 4-(N-(benzo[d][1,3]dioxol-5-ylmethyl)-N-benzylsulfamoyl)benzoic acid] | > 80 | ++ (40% to 60% inhibition = ++) | – | ++++ (80% or greater inhibition = ++++) | ++++ (80% or greater inhibition = ++++) | 20 to 40 | – | – | 40 to 60 | > 80 | 40 to 60 | 40 to 60 | 60 to 80 | 20 to 40 | > 80 | 20 to 40 | +++ (60% to 80% inhibition = +++) | – | +++ (60% to 80% inhibition = +++)
